{"source": "patent US11266662B2", "about": "“Ganaxolone for use in prophylaxis and treatment of postpartum depression” (Marinus Pharmaceuticals, Inc., priority 2018, dated 2022)", "key": {"[1]": {"assay": "Example 3 Phase 2 study of oral ganaxolone in women with PPD: expected plasma concentrations", "assay_type": "in vivo, human", "procedure": "Approximately 172 women aged 18 to 48 years with PPD are screened, and approximately 88 subjects are enrolled into a Phase 2 clinical study. The enrolled subjects are assigned to five groups.\nIn the first group, approximately 8 subjects are titrated to a total daily oral dose of 900 mg ganaxolone per day (administered in three divided doses per day) over 10 days, followed by a taper over 4 days. For this group ganaxolone doses are titrated from 225 mg on Day 1 to a total daily oral dose of 900 mg starting on Day 7. The ganaxolone mean trough plasma concentrations during the Days 8, 9, and 10 are predicted to be about 40 ng/ml, based on PK modelling. Bedtime doses are selected to be higher than the daytime doses, and are expected to yield plasma mean peak concentrations up to 180 ng/ml during the night on Days 8, 9 and 10.\nIn the third group, approximately 20 subjects receive ganaxolone administered orally at a dose of 675 mg QHS for 28 days, followed by a taper over 4 days. The trough ganaxolone levels are expected to be below 40 ng/ml.\nIn the fourth group, approximately 20 subjects receive orally, on the first 2 days, ganaxolone capsules 675 mg at dinner time and 675 mg at bedtime (for a total of 1,350 mg per day on the first 2 days), followed by 26 days of ganaxolone capsules 1,125 mg at dinner time (high fat diet), and a taper over 4 days. […]"}, "[2]": {"test_system": "synaptic and extrasynaptic GABAA receptors", "assay": "Activation of synaptic and extrasynaptic GABAA receptors", "settings": "site distinct from the benzodiazepine site"}, "[3]": {"test_system": "BTBR mouse model of autism", "settings": "Kazdoba et al, 2016; cited from earlier work"}, "[4]": {"test_system": "mouse model of posttraumatic stress disorder (PTSD)", "settings": "Pinna and Rasmussen, 2014; cited from earlier work"}, "[5]": {"assay": "Phase 1 study of IV ganaxolone in healthy volunteers (safety, pharmacokinetics, sedation)", "assay_type": "in vivo, human", "procedure": "The safety, pharmacokinetics and pharmacodynamics of IV ganaxolone were investigated in healthy 36 volunteers, in which ganaxolone was administered as a bolus dosing (Stage 1) or as a bolus dose followed by a continuous infusion (Stage 2). Ten of the 36 subjects enrolled were women. Stage 1 enrolled and dosed subjects in 4 cohorts (A-D): 6 subjects in Cohort A (10 mg ganaxolone IV bolus in 3 subjects and 30 mg ganaxolone bolus in 3 subjects over 5-minutes), 8 subjects in Cohort B (20 mg ganaxolone bolus over 2-minutes), 8 subjects in Cohort C (30 mg ganaxolone bolus over 1-hour) and 8 subjects in Cohort D (10 mg ganaxolone bolus over 1-hour). Cohorts B, C and D included 2 placebo subjects in each cohort. Stage 2 of the study dosed a total of 6 subjects with a 6 mg bolus followed by a 4-hour infusion at 20 mg/h. Ten of the 36 subjects enrolled in the study were women.\nA Phase 1 study in healthy volunteers investigating the safety of IV ganaxolone, infusion of 30 mg/hr for 1 hour, 20 mg over 2 minutes and 20 mg/hr for 4 hours led to peak concentrations of 258, 441 and 215 ng/mL, respectively, without any safety concerns. Sedation was assessed using the Modified Observers Assessment of Alertness/Sedation (MOAAS) scale. On this scale, score 5 indicates no sedation (responds readily to name spoken in normal tone) while score 1 indicates deep sedation (responds only after painful trapezius squeeze). […] The sedation scores reversed quickly after the infusion was stopped. The highest bolus dose tested was 30 mg, which was infused over 5-minutes. This dose led to peak concentration levels (Cmax) of >1,000 ng/mL with no safety concerns (except sedation)."}, "rats or mice": {"test_system": "rats or mice", "assay": "Reproductive and developmental toxicity"}, "[6]": {"test_system": "women with postpartum depression", "assay": "Phase 2A study: safety and tolerability (adverse events)", "assay_type": "in vivo, human"}, "[7]": {"assay": "Human pharmacokinetics after oral administration", "settings": "in vivo"}, "[8]": {"assay": "In vitro haemolysis / human plasma compatibility"}, "[9]": {"assay": "Tissue distribution of [14C]-ganaxolone", "settings": "mouse, rat, brain"}}, "note": "Several values for one entry are separate records, joined by “and”; a condition that tells them apart may be missing. Equal entries are not always repeated. Entries after “also recorded” stand apart in the source; their conditions may differ.", "data": [{"smiles": "CC(=O)[C@H]1CC[C@H]2[C@@H]3CC[C@H]4C[C@](C)(O)CC[C@]4(C)[C@H]3CC[C@]12C", "note": "[ganaxolone, 3α-hydroxy-3β-methyl-5α-pregnan-20-one]", "values": [{"measurement": "Expected plasma mean peak concentrations during the night", "setting": "[1]; first group, Days 8, 9 and 10", "value": "up to 180 ng/ml"}, {"measurement": "Expected trough ganaxolone levels", "setting": "[1]; third group: 675 mg QHS orally for 28 days", "value": "below 40 ng/ml"}, {"measurement": "Mutagenicity", "setting": "Mutagenicity", "value": "No potential for mutagenicity was detected"}, {"measurement": "Potency and efficacy in activating GABAA receptors", "setting": "[2]", "value": "comparable to allopregnanolone"}, {"measurement": "Sociability", "setting": "[3]", "value": "improved sociability"}, {"measurement": "Aggression and social isolation-induced anxiety-like behaviour", "setting": "[4]", "value": "decreased aggression and social isolation-induced anxiety-like behaviour"}, {"measurement": "Peak concentration", "setting": "[5]; 20 mg over 2 minutes", "value": 441, "unit": "ng/mL"}, {"measurement": "Peak concentration", "setting": "[5]; 20 mg/hr for 4 hours", "value": 215, "unit": "ng/mL"}, {"measurement": "Treatment emergent AEs, seriousness and intensity", "setting": "[5]; Stages 1 and 2", "value": "None of the treatment emergent AEs were serious, and all were of mild intensity"}, {"measurement": "Cmax", "setting": "[5]; human, in vivo, intravenous, bolus infusion of 30 mg over 5-minutes, read-out: Peak concentration levels (Cmax)", "value": "> 1000", "unit": "ng/mL"}, {"measurement": "Peak concentration", "setting": "[5]; infusion of 30 mg/hr for 1 hour", "value": 258, "unit": "ng/mL"}, {"measurement": "Modified Observers Assessment of Alertness/Sedation (MOAAS) score", "setting": "[5]; score 5 = no sedation, 1 = deep sedation", "value": "vast majority of the scores were 5"}, {"measurement": "Fertility and early embryonic development", "setting": "rats or mice; rats", "value": "no effects on fertility and early embryonic development"}, {"measurement": "Teratogenicity", "setting": "rats or mice; rats or mice", "value": "not teratogenic"}, {"measurement": "Serious adverse events or adverse events leading to discontinuation", "setting": "[6]; Cohort 1: IV 4 mg/hr for 48 h then 2 mg/hr for 12 h, 9 subjects", "value": "no serious adverse events or adverse events leading to discontinuation"}, {"measurement": "DC for AE", "setting": "[6]; Cohort 6", "value": "0 n (%)"}, {"measurement": "Incidence of dizziness", "setting": "[6]; Cohort 6", "value": 25, "unit": "%"}, {"measurement": "Serious adverse events or adverse events leading to treatment discontinuation", "setting": "[6]; Cohort 6", "value": "no serious adverse events or adverse events leading to treatment discontinuation"}, {"measurement": "TEAE somnolence", "setting": "[6]; Cohort 6", "value": "0 n (%)"}, {"measurement": "Incidence of somnolence and sedation", "setting": "[6]; Cohort 6: IV 20 mg/hr for 6 hours and 900 mg orally with dinner", "value": "> 30% and 31.3%"}, {"measurement": "Tolerability of oral administration", "setting": "[6]; Cohort 6, 900 mg orally with dinner, after Day 2", "value": "well tolerated"}, {"measurement": "Cmax", "setting": "[7]", "value": "200 to 300", "unit": "ng/mL"}, {"measurement": "Haemolysis", "setting": "[8]", "value": "did not cause haemolysis; also recorded: did not cause hemolysis"}, {"measurement": "Kp", "setting": "[9]", "value": "~5"}]}]}
